Data taken from ChEMBL document CHEMBL1151316, “Pyrrolizidine alkaloids from Heliotropium megalanthum” (J Nat Prod, 1998).

What was measured:
[1] = tested on: Leptinotarsa decemlineata; test: Antifeedant activity in Leptinotarsa decemlineata assessed as reduction of feeding at 100 ug/cm2 by choice test; type: functional; design: scale not given: the % may be the effect or the level left
Spodoptera littoralis [2] = test: Insecticidal activity against orally dosed Spodoptera littoralis L6 larvae assessed as relative growth rate after 72 hrs; type: functional
Spodoptera littoralis [3] = test: Antifeedant activity in Spodoptera littoralis L6 larvae assessed as reduction of feeding by choice test; type: functional, organism-based
Spodoptera littoralis [4] = test: Insecticidal activity against orally dosed Spodoptera littoralis L6 larvae assessed as relative consumption rate after 72 hrs; type: functional
Spodoptera littoralis [5] = test: Antifeedant activity in Spodoptera littoralis L6 larvae assessed as reduction of feeding at 100 ug/cm2 by choice test; type: functional; design: scale not given: the % may be the effect or the level left
[6] = tested on: Leptinotarsa decemlineata; test: Insecticidal activity against haemolymph dosed Leptinotarsa decemlineata assessed as increase in mortality after 2 days; type: functional
[7] = tested on: Leptinotarsa decemlineata; test: Antifeedant activity in Leptinotarsa decemlineata assessed as reduction of feeding by no-choice test; type: functional, organism-based
[8] = tested on: Leptinotarsa decemlineata; test: Antifeedant activity in Leptinotarsa decemlineata assessed as reduction of feeding at 100 ug/cm2 by no-choice test; type: functional; design: scale not given: the % may be the effect or the level left
Spodoptera littoralis [9] = test: Antifeedant activity in Spodoptera littoralis L6 larvae assessed as reduction of feeding at 5 ug/cm2 by choice test; type: functional; design: scale not given: the % may be the effect or the level left
[10] = tested on: Leptinotarsa decemlineata; test: Antifeedant activity in Leptinotarsa decemlineata assessed as reduction of feeding by choice test; type: functional, organism-based

## CC(C)[C@](O)(C(=O)OCC1=CCN2CC[C@@H](O)[C@@H]12)[C@@H](C)O [LYCOPSAMINE]
[1]
  Activity: 27.53%
Spodoptera littoralis [2]
  Activity: 3.32 mg
Spodoptera littoralis [3]
  EC50: 31.62 microg/cm2
Spodoptera littoralis [4]
  Activity: 21.19 mg
Spodoptera littoralis [5]
  Activity: 61.08%
[6]
  Activity: 12%
[7]
  EC50: 25.97 microg/cm2
[8]
  Activity: 68.4%

## CO[C@@H](C)[C@](O)(C(=O)OCC1=CCN2CC[C@H](O)[C@@H]12)C(C)(C)O [EUROPINE]
Spodoptera littoralis [9]
  Activity: 67%

## CC(C)[C@@](O)(C(=O)OC[C@H]1CCN2CC[C@@H](O)[C@@H]12)[C@H](C)O [MEGALANTHONINE]
[6]
  Activity: 10%

## CC(=O)O[C@H](C)[C@](O)(C(=O)OC[C@@H]1CCN2CCC[C@@H]12)C(C)C
[10]
  EC50: 1.79 microg/cm2
[6]
  Activity: 5%
[7]
  EC50: 2.92 microg/cm2
